Test results taken from ChEMBL document CHEMBL1201862, “PubChem BioAssay data set” (2004).
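Protocol summary: plate cells (96-well), add compound at 5 concentrations, incubate 48 h, interpolate endpoints linearly. Abbreviation: GI50, concentration required for 50% inhibition of growth.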 Calls of active or inactive are those of the source. No stated cut-off is given here; in the data, active = GI50 up to about 1.1 µM and inactive = higher.

Legend:
Experiment in all cases: NCI tumour cell line growth inhibition, 48 h
[1] = test system: 786-0
[2] = test system: A498
[3] = test system: A549
[4] = test system: ACHN
[5] = test system: CAKI-1
[6] = test system: CCRF-CEM
[7] = test system: COLO 205
[8] = test system: DLD-1
[9] = test system: DMS-114
[10] = test system: DMS-273
[11] = test system: EKVX
[12] = test system: HCC 2998
[13] = test system: HCT-116
[14] = test system: HCT-15
[15] = test system: HL-60
[16] = test system: HOP-18
[17] = test system: HOP-62
[18] = test system: HOP-92
[19] = test system: HT-29
[20] = test system: IGROV-1
[21] = test system: K562
[22] = test system: KM-20L2
[23] = test system: KM12
[24] = test system: LOX IMVI
[25] = test system: LXFL 529
[26] = test system: M14
[27] = test system: MOLT-4
[28] = test system: Malme-3M
[29] = test system: NCI-H226
[30] = test system: NCI-H23
[31] = test system: NCI-H460
[32] = test system: NCI-H522
[33] = test system: OVCAR-3
[34] = test system: OVCAR-4
[35] = test system: OVCAR-5
[36] = test system: OVCAR-8
[37] = test system: RPMI-8226
[38] = test system: RXF 631
[39] = test system: SF-268
[40] = test system: SF-295
[41] = test system: SF-539
[42] = test system: SK-MEL-28
[43] = test system: SK-MEL-2
[44] = test system: SK-MEL-5
[45] = test system: SK-OV-3
[46] = test system: SN12C
[47] = test system: SNB-19
[48] = test system: SNB-75
[49] = test system: SR
[50] = test system: SW-620
[51] = test system: TK-10
[52] = test system: U-251
[53] = test system: UACC-257
[54] = test system: UACC-62
[55] = test system: UO-31
[56] = test system: XF498
[57] = test system: M19-MEL
[58] = test system: RXF 393

With `CN(C)CCN1N=Nc2cccc3cccc1c23` the GI50 [1] was > 100 µM (inactive), the GI50 [2] was > 91.8 µM (inactive) and the GI50 [3] was > 100 µM (inactive). The GI50 [4] was 61.1 µM (inactive), the GI50 [5] was 69.7 µM (inactive) and the GI50 [6] was > 47 µM (inactive). For the same molecule, the GI50 [7] was 68.4 µM (inactive), the GI50 [8] was > 80.7 µM (inactive) and the GI50 [9] was > 74.8 µM (inactive). For the same molecule, the GI50 [10] was 24.5 µM (inactive), the GI50 [11] was > 100 µM (inactive) and the GI50 [12] was > 100 µM (inactive). The GI50 [13] was 57.1 µM (inactive), the GI50 [14] was greater than 61900 nM and the GI50 [15] was > 46.8 µM (inactive). For the same molecule, the GI50 [16] was > 100 µM (inactive), the GI50 [17] was > 100 µM (inactive) and the GI50 [18] was > 100 µM (inactive). The GI50 [19] was 45.6 µM (inactive), the GI50 [20] was > 100 µM (inactive) and the GI50 [21] was > 65.2 µM (inactive). For the same molecule, the GI50 [22] was > 61.4 µM (inactive), the GI50 [23] was > 100 µM (inactive) and the GI50 [24] was 83.8 µM (inactive). For the same molecule, the GI50 [25] was > 87.3 µM (inactive), the GI50 [26] was > 100 µM (inactive) and the GI50 [27] was 35.2 µM (inactive). The GI50 [28] was > 78.3 µM (inactive), the GI50 [29] was > 100 µM (inactive) and the GI50 [30] was > 100 µM (inactive). The GI50 [31] was 37.5 µM (inactive), the GI50 [32] was 54.2 µM (inactive) and the GI50 [33] was > 100 µM (inactive). For the same molecule, the GI50 [34] was 72.9 µM (inactive), the GI50 [35] was > 100 µM (inactive) and the GI50 [36] was 97.9 µM (inactive). For the same molecule, the GI50 [37] was > 43.9 µM (inactive), the GI50 [38] was > 100 µM (inactive) and the GI50 [39] was > 100 µM (inactive). For the same molecule, the GI50 [40] was > 100 µM (inactive), the GI50 [41] was > 100 µM (inactive) and the GI50 [42] was > 100 µM (inactive). For the same molecule, the GI50 [43] was > 100 µM (inactive), the GI50 [44] was > 88.7 µM (inactive) and the GI50 [45] was > 100 µM (inactive). The GI50 [46] was > 55.5 µM (inactive), the GI50 [47] was > 100 µM (inactive) and the GI50 [48] was > 100 µM (inactive). For the same molecule, the GI50 [49] was 15.7 µM (inactive), the GI50 [50] was 25.1 µM (inactive) and the GI50 [51] was > 100 µM (inactive). The GI50 [52] was > 100 µM (inactive), the GI50 [53] was > 100 µM (inactive) and the GI50 [54] was > 100 µM (inactive). For the same molecule, the GI50 [55] was > 100 µM (inactive) and the GI50 [56] was > 89.5 µM (inactive).
In the case of `COc1cccc2c1C(=O)c1c(O)c3c(c(O)c1C2=O)C[C@@](O)(C(C)=O)C[C@@H]3OC1CC([N+]([O-])(Cc2ccccc2)Cc2ccccc2)C(O)C(C)O1` (some centres not stated), the GI50 [1] is reported as 1.44 µM (inactive), the GI50 [2] is reported as 2.46 µM (inactive) and the GI50 [3] is reported as 1.29 µM (inactive). The GI50 [4] was 1.22 µM (inactive), the GI50 [5] was 1.14 µM (inactive) and the GI50 [6] was 0.399 µM (active). The GI50 [8] was 1.29 µM (inactive), the GI50 [9] was 1.33 µM (inactive) and the GI50 [11] was 1.8 µM (inactive). For the same molecule, the GI50 [12] was 1.62 µM (inactive), the GI50 [14] was 1320 nM and the GI50 [15] was 1.42 µM (inactive). For the same molecule, the GI50 [16] was 1.58 µM (inactive), the GI50 [17] was 1.56 µM (inactive) and the GI50 [18] was 1.52 µM (inactive). The GI50 [19] was 1.52 µM (inactive), the GI50 [20] was 1.36 µM (inactive) and the GI50 [21] was 1.7 µM (inactive). For the same molecule, the GI50 [22] was 1.55 µM (inactive), the GI50 [23] was 1.48 µM (inactive) and the GI50 [24] was 1.02 µM (active). The GI50 [25] was 1.11 µM (active), the GI50 [26] was 1.69 µM (inactive) and the GI50 [57] was 1.43 µM (inactive). For the same molecule, the GI50 [27] was 0.191 µM (active), the GI50 [30] was 1.3 µM (inactive) and the GI50 [31] was 0.71 µM (active). For the same molecule, the GI50 [32] was 1.39 µM (inactive), the GI50 [33] was 1.73 µM (inactive) and the GI50 [34] was 1.77 µM (inactive). For the same molecule, the GI50 [35] was 1.79 µM (inactive), the GI50 [36] was 0.774 µM (active) and the GI50 [37] was 1.54 µM (inactive). The GI50 [58] was 1.21 µM (inactive), the GI50 [38] was 0.428 µM (active) and the GI50 [40] was 1.19 µM (inactive). The GI50 [41] was 1.26 µM (inactive), the GI50 [43] was 1.98 µM (inactive) and the GI50 [44] was 1.35 µM (inactive). The GI50 [45] was 4.2 µM (inactive), the GI50 [46] was 1.06 µM (active) and the GI50 [47] was 2.13 µM (inactive). For the same molecule, the GI50 [48] was 1.48 µM (inactive), the GI50 [49] was 0.179 µM (active) and the GI50 [50] was 1 µM (active). The GI50 [51] was 1.6 µM (inactive), the GI50 [52] was 1.24 µM (inactive) and the GI50 [53] was 1.71 µM (inactive). The GI50 [54] was 1.47 µM (inactive), the GI50 [55] was 1.27 µM (inactive) and the GI50 [56] was 1.23 µM (inactive).
